# In patent publication US10646494B2, “Heterocycle-substituted tetracyclic compounds and methods of use thereof for the treatment of viral diseases” (Merck Sharp & Dohme Corp., priority 2016, dated 2020):
# Read-outs that look alike come from different tables or passages of the source.
# Columns and labels:
# Parameters in all cases: species or system Hepatitis C virus (HCV)
# HCV replicon 2B = assay: Cell-based HCV replicon assay (Replicon Assay A), replicon 2B; conditions: read-out: Replicon EC50 (nM) 2B, replicon 2B, replicon RNA by real time PCR, cells harvested on day 3
# Procedure: (§1) To measure cell-based anti-HCV activity of compounds of the present invention, two complimentary assays were employed using various replicons. In the first assay (“Replicon Assay A”), replicon cells were seeded at 2000 cells/well in 384-well 384-well flat bottom tissue culture treated clear bottom plate (Corning 3707) in the presence of the test compound. Various concentrations of test compound, typically in 10 serial dilutions, were added to the assay mixture, with the starting concentration ranging from 333.3 nM to […]. The final concentration of DMSO was 0.5%. Fetal bovine serum was 5%, in the assay media. Cells were harvested on day 3 by removing media and washing the cells with a suitable wash buffer. The cells are lysed with the addition of 1× Qiagen lysis buffer (Cat #1062731). The replicon RNA level was measured using real time PCR (TaqMan® EZ RT-PCR, Applied Biosystems 403028) with the following primers and probes: […]
# (§2) Cyclophilin RNA was used as endogenous control and was amplified in the same reaction as NS5B (multiplex PCR). The real-time RT-PCR reactions were run on ABI PRISM 7900HT Sequence Detection System using the following program: 50° C. for 2 minutes, 60° C. for 30 minutes, 95° C. for 5 minutes, 40 cycles of 94° C. for 20 sec, 55° C. for 1 minutes.
# (§3) The amount of HCV replicon RNA per cell is quantified using a linear regression curve for a known nanogram (ng) amount of HCV replicon total RNA. This is established by plotting the Cycle Threshold values (Ct) from the Neo probe and primer set versus the log (ng) for each HCV replicon total RNA standard. The amount of HCV RNA for each replicon sample is calculated by taking the sample's Ct value, minus the line intercept, divided by the slope of the line. Similarly, the amount of Cyclophilin mRNA per cell is also quantified using a linear regression curve for a known nanogram (ng) amount of HCV replicon total RNA. Again, this is established by plotting the Cycle Threshold values (Ct) from the Cyclophilin probe and primer set versus the log (ng) for each HCV replicon total RNA standard.
# (§4) Data was obtained for various compounds of the present invention using the methods described in the Example above, and is presented in the table immediately below. Data for replicons 1A, 1AY93H and 2B were obtained using Replicon Assay A and data for replicons 1B were obtained using Replicon Assay B.
# HCV replicon 1A Y93H = assay: Cell-based HCV replicon assay (Replicon Assay A), replicon 1AY93H; conditions: read-out: Replicon EC50 (nM) 1A Y93H, replicon 1A Y93H, replicon RNA by real time PCR, cells harvested on day 3
# Procedure: as §1, §2, §3, §4
# HCV replicon 1A = assay: Cell-based HCV replicon assay (Replicon Assay A), replicon 1A; conditions: replicon RNA by real time PCR, cells harvested on day 3
# Procedure: as §1, §2, §3, §4
Structure (SMILES),EC50 (HCV replicon 2B) [nM],EC50 (HCV replicon 1A Y93H) [nM],"EC50 (HCV replicon 1A; Hepatitis C virus, 72 h) [nM]","EC50 (HCV replicon 1A Y93H; Hepatitis C virus, 72 h) [nM]",EC50 (HCV replicon 1A) [nM],"EC50 (HCV replicon 2B; Hepatitis C virus, 72 h) [nM]"
"COC(=O)N[C@H](C(=O)N1CCC[C@H]1c1ncc(-c2cc(F)c3c(c2)O[C@@H](c2cc(C(C)C)no2)n2c-3cc3cc(-c4cnc([C@@H]5CCCN5C(=O)[C@@H](NC(=O)OC)C(C)C)[nH]4)ccc32)[nH]1)C(C)C (single isomer, unassigned) [Compound 9]",0.27,0.05,0.0036,,,
"COC(=O)N[C@H](C(=O)N1CCC[C@H]1c1ncc(-c2cc(F)c3c(c2)OC(c2nc(C)co2)n2c-3cc3cc(-c4cnc([C@@H]5CCCN5C(=O)[C@@H](NC(=O)OC)C(C)C)[nH]4)ccc32)[nH]1)C(C)C (single isomer, unassigned) [Compound 23]",6.16,12.7,0.0031,,,
COC(=O)N[C@H](C(=O)N1CCC[C@H]1c1ncc(-c2ccc3c(c2)OC(c2ccc(C)o2)n2c-3cc3cc(-c4cnc([C@@H]5C[C@@H](F)CN5C(=O)[C@@H](NC(=O)OC)C5CCOCC5)[nH]4)ccc32)[nH]1)C(C)C (some centres unmarked) [Compound 44],,,0.0679,0.434,,
COC(=O)N[C@H](C(=O)N1CCC[C@H]1c1ncc(-c2ccc3c(c2)OC(c2nnc(-c4ccccc4)o2)n2c-3cc3cc(-c4cnc([C@@H]5CCCN5C(=O)[C@@H](NC(=O)OC)C5CCOCC5)[nH]4)ccc32)[nH]1)C1CCOCC1 (mixture of isomers) [Compound 38],,,0.223,0.737,,
"CCc1cc([C@@H]2Oc3cc(-c4cnc([C@@H]5CCCN5C(=O)[C@@H](NC(=O)OC)C(C)C)[nH]4)cc(F)c3-c3cc4cc(-c5cnc([C@@H]6CCCN6C(=O)[C@@H](NC(=O)OC)C(C)C)[nH]5)ccc4n32)on1 (single isomer, unassigned) [Compound 7]",10.5,49.7,,,0.0073,
CCc1cc(C2Oc3cc(-c4cnc([C@@H]5CCCN5C(=O)[C@@H](NC(=O)OC)C(C)C)[nH]4)cc(F)c3-c3cc4cc(-c5cnc([C@@H]6CCCN6C(=O)[C@@H](NC(=O)OC)C(C)C)[nH]5)ccc4n32)on1 (mixture of isomers) [Compound 5],,,,0.708,,4.17
"CCc1cnc(C2Oc3cc(-c4cnc([C@@H]5CCCN5C(=O)[C@@H](NC(=O)OC)C(C)C)[nH]4)cc(F)c3-c3cc4cc(-c5cnc([C@@H]6CCCN6C(=O)[C@@H](NC(=O)OC)C(C)C)[nH]5)ccc4n32)o1 (single isomer, unassigned) [Compound 28]",2.09,,,0.31,0.0021,
"COC(=O)N[C@H](C(=O)N1CCC[C@H]1c1ncc(-c2cc(F)c3c(c2)OC(c2cc4ccccn4n2)n2c-3cc3cc(-c4cnc([C@@H]5CCCN5C(=O)[C@@H](NC(=O)OC)C(C)C)[nH]4)ccc32)[nH]1)C(C)C (single isomer, unassigned) [Compound 39]",0.33,1.66,,,0.0068,
"COC(=O)N[C@H](C(=O)N1CCC[C@H]1c1ncc(-c2cc(F)c3c(c2)OC(c2nc(C(C)C)ns2)n2c-3cc3cc(-c4cnc([C@@H]5CCCN5C(=O)[C@@H](NC(=O)OC)C(C)C)[nH]4)ccc32)[nH]1)C(C)C (single isomer, unassigned) [Compound 32]",0.9,0.185,,,0.0022,
"CCc1cnc(C2Oc3cc(-c4cnc([C@@H]5CCCN5C(=O)[C@@H](NC(=O)OC)C(C)C)[nH]4)cc(F)c3-c3cc4cc(-c5cnc([C@@H]6CCCN6C(=O)[C@@H](NC(=O)OC)C(C)C)[nH]5)ccc4n32)o1 (single isomer, unassigned) [Compound 27]",5.5,,0.0027,,,
"COC(=O)N[C@H](C(=O)N1CCC[C@H]1c1ncc(-c2cc(F)c3c(c2)OC(c2nc4ccccc4o2)n2c-3cc3cc(-c4cnc([C@@H]5CCCN5C(=O)[C@@H](NC(=O)OC)C(C)C)[nH]4)ccc32)[nH]1)C(C)C (single isomer, unassigned) [Compound 19]",2.67,4.36,0.0016,,,
COC(=O)N[C@H](C(=O)N1CCC[C@H]1c1ncc(-c2ccc3c(c2)OC(c2ccc(C)o2)n2c-3cc3cc(-c4cnc([C@@H]5C[C@@H](F)CN5C(=O)[C@@H](NC(=O)OC)C(C)C)[nH]4)ccc32)[nH]1)C(C)C (some centres unmarked) [Compound 43],,,0.0281,1.02,,0.06
"CCc1nnc(C2Oc3cc(-c4cnc([C@@H]5CCCN5C(=O)[C@@H](NC(=O)OC)C(C)C)[nH]4)cc(F)c3-c3cc4cc(-c5cnc([C@@H]6CCCN6C(=O)C(NC(=O)OC)C(C)C)[nH]5)ccc4n32)s1 (single isomer, unassigned) [Compound 34]",,,,0.793,0.0084,
COC(=O)N[C@H](C(=O)N1CCC[C@H]1c1ncc(-c2cc(F)c3c(c2)OC(c2nc4ccccc4n2C)n2c-3cc3cc(-c4cnc([C@@H]5CCCN5C(=O)[C@@H](NC(=O)OC)C(C)C)[nH]4)ccc32)[nH]1)C(C)C (mixture of isomers) [Compound 11],,,0.0081,21.6,,8.23
"COC(=O)N[C@H](C(=O)N1CCC[C@H]1c1ncc(-c2cc(F)c3c(c2)OC(c2cc4ccccn4n2)n2c-3cc3cc(-c4cnc([C@@H]5CCCN5C(=O)[C@@H](NC(=O)OC)C(C)C)[nH]4)ccc32)[nH]1)C(C)C (single isomer, unassigned) [Compound 40]",1.54,0.536,,,0.0084,
"COC(=O)N[C@H](C(=O)N1CCC[C@H]1c1ncc(-c2cc(F)c3c(c2)OC(c2cc(C(C)C)no2)n2c-3cc3cc(-c4cnc([C@@H]5CCCN5C(=O)[C@@H](NC(=O)OC)C(C)C)[nH]4)ccc32)[nH]1)C(C)C (single isomer, unassigned) [Compound 26]",0.8,0.816,,,,
"COC(=O)N[C@H](C(=O)N1CCC[C@H]1c1ncc(-c2cc(F)c3c(c2)OC(c2nc(C)co2)n2c-3cc3cc(-c4cnc([C@@H]5CCCN5C(=O)[C@@H](NC(=O)OC)C(C)C)[nH]4)ccc32)[nH]1)C(C)C (single isomer, unassigned) [Compound 24]",2.62,0.266,,,0.0021,
COC(=O)N[C@H](C(=O)N1CCC[C@H]1c1ncc(-c2ccc3c(c2)OC(c2ccc(C)o2)n2c-3cc3cc(-c4cnc([C@@H]5C[C@H]6C[C@H]6N5C(=O)[C@@H](NC(=O)OC)C(C)C)[nH]4)ccc32)[nH]1)C(C)C (some centres unmarked) [Compound 45],,,0.0484,4.22,,
"COC(=O)N[C@H](C(=O)N1CCC[C@@H]1c1ncc(-c2ccc3c(c2)cc2n3C(c3nnc(C)s3)Oc3cc(-c4cnc([C@H]5CCCN5C(=O)[C@H](NC(=O)OC)C(C)C)[nH]4)cc(F)c3-2)[nH]1)C(C)C (single isomer, unassigned) [Compound 16]",1.75,,,,,
"COC(=O)N[C@H](C(=O)N1CCC[C@H]1c1ncc(-c2cc(F)c3c(c2)OC(c2cnns2)n2c-3cc3cc(-c4cnc([C@@H]5CCCN5C(=O)[C@@H](NC(=O)OC)C(C)C)[nH]4)ccc32)[nH]1)C(C)C (single isomer, unassigned) [Compound 21]",0.98,1.39,,,,
COC(=O)N[C@H](C(=O)N1CCC[C@H]1c1ncc(-c2cc(F)c3c(c2)OC(c2cc4ccccn4n2)n2c-3cc3cc(-c4cnc([C@@H]5CCCN5C(=O)[C@@H](NC(=O)OC)C(C)C)[nH]4)ccc32)[nH]1)C(C)C (mixture of isomers) [Compound 12],,,0.0202,,,33.3
"COC(=O)N[C@H](C(=O)N1CCC[C@@H]1c1ncc(-c2ccc3c(c2)cc2n3C(c3nnc(C)s3)Oc3cc(-c4cnc([C@H]5CCCN5C(=O)[C@H](NC(=O)OC)C(C)C)[nH]4)cc(F)c3-2)[nH]1)C(C)C (single isomer, unassigned) [Compound 15]",,,,,,3.06
COC(=O)N[C@H](C(=O)N1CCC[C@H]1c1ncc(-c2cc(F)c3c(c2)OC(c2cnc4n2CCC4)n2c-3cc3cc(-c4cnc([C@@H]5CCCN5C(=O)[C@@H](NC(=O)OC)C(C)C)[nH]4)ccc32)[nH]1)C(C)C (some centres unmarked) [Compound 13],,,0.147,,,
"COC(=O)N[C@H](C(=O)N1CCC[C@H]1c1ncc(-c2cc(F)c3c(c2)OC(c2cc(C4CC4)no2)n2c-3cc3cc(-c4cnc([C@@H]5CCCN5C(=O)[C@@H](NC(=O)OC)C(C)C)[nH]4)ccc32)[nH]1)C(C)C (single isomer, unassigned) [Compound 29]",0.46,3.25,,,,
